We go through two compounds from patent publication US10201556B2, “Combination for use in treating diseases or conditions associated with melanoma, or treating diseases or conditions associated with activated B-raf pathway” (InteRNA Technologies B.V., priority 2012, dated 2019).

Some results are limits rather than exact numbers.

One may read the GI50 as the concentration at which growth is held to half of that of the control.

In data set [1] the test system is A375Hu-R1 (vemurafenib resistant clone of A375Hu). Put plainly: Anti-proliferative effect of small molecules, MTS assay. Type of data set: cell-based. Conditions: Homo sapiens, A375Hu-R1 (A375-R), in vitro acquired resistance, 72 hours. The protocol:
The anti-proliferative effect of small molecules in melanoma cell lines was determined with V600E BRAF inhibitor, vemurafenib (PLX-4032, 51267, Selleck) and MEK inhibitor, selumetinib (AZD-6244, S1008, Selleck). For each cell line optimal growth conditions were determined prior to the experiment. Cells were plated in a 96-well plate at 3000 cells per well (100 uL) and were grown at 37 C, 5% CO2. Small molecule mix (50 uL per well) was made for each concentration in medium. Cells were treated in triplicate 24 hours after plating. After 72 hours medium was replaced and viability was measured with the MTS assay (Promega) according to manufacturer's instructions. Cell viability inhibition is normalized against loading control (0.1% DMSO) and GraphPad Prism was used to fit the curve and calculate GI50 values.
The A375Hu melanoma cell line was used to make a vemurafenib (PLX-4032) resistant sub line. A375Hu cells were plated at low density in 96-well plates and exposed to 1 uM PLX-4032. Cell growth was monitored until clonal growth was observed. Wells with clonal growth (approximately 5%) were replated in a 96-well plate and exposed to 1 uM PLX-4032. The 10 best growing clones were replated in 6-well plates in 1 uM PLX-4032 and the three best growing clones were used for further culturing. Clone number 1 (A375Hu-R1) grew best with 1 uM PLX-4032 and was chosen for additional experiments.

For data set [2], the system named is A375-R, M249-AR4 and M376. As to the kind of experiment: MTS cell viability after miR-3157 mimic transfection, acquired resistance lines. The format is cell-based. Conditions: 10 nM mimic, 72 hours (FIG. 11c). The protocol: miR-3157 broadly affects melanoma cell line viability. Melanoma cell lines were divided into those that have the BRAFV600E mutation and are sensitive (a), intrinsically resistant (b) or acquired resistance to vemurafenib (c). Cell lines were transfected in triplicate with control miRNA or miR-3157 mimics (10 nM; n=2). Mock is transfectant only. Cell viability was determined using the MTS assay and calculated relative to mock transfected cells.
A375 cells were obtained from the Hubrecht Institute (Utrecht, The Netherlands); SKMEL-28, A2058 and RPMI-7951 were from the ATCC; SKMEL-57 was a gift from Dr. Patricia Groenen (Radboud University Nijmegen Medical Centre, The Netherlands); for cell line characteristics of M249, M249-AR4, M233 and M376 see (Atefi et al. 2011). A375-R, with in vitro acquired resistance to vemurafenib, was established in our lab by clonal selection of cells continually exposed to 1 μM vemurafenib. A375, A375-R, SKMEL-28, A2058 and SKMEL-57 were grown in DMEM GlutaMAX™-I (Gibco®), all other cell lines in RPMI-1640 (Gibco®). Media was supplemented with 10% FBS (Sigma), and cells were maintained in a humidified 37° C. incubator (Thermo Scientific) with 5% CO2. […]
Cells were seeded in 96-well plates and transfected the next day. […] Read-out was performed at 490 nm on a Multiskan FC plate reader (Thermo Scientific) at 72 hours post transfection.

Data set [3] has as its system mRNA levels in A375 cells. Put plainly: RNA sequencing (transcriptome) of transfected A375 cells. The format is cell-based, human. Conditions: 100 nM mimic. The protocol:
A375 cells were plated in duplo in a 6-well plate at 1.5×10^5 cells/well. The next day, cells were transfected with 100 nM miR-3157 or Negative Control #2 mimics, using 15 μl X-tremeGENE. This procedure (plating and transfection) was repeated three times to generate biological replicates. After 72 hrs, total RNA was isolated using TRI reagent (Sigma-Aldrich) according to the manufacturer's protocol. From 30 μg total RNA, the mRNA was isolated using the MicroPoly(A)Purist kit (Ambion), and the mRNA-ONLY Eukaryotic mRNA Isolation Kit (Epicenter). RNAseq libraries were further prepared using the SOLiD™ Total RNA-Seq Kit (Life Technologies (LT)). Fragmentation of the isolated mRNA was performed by incubation in 20 μl 3 mM MgCl/10 mM Tris pH8, for 15 minutes at 95° C. The fragmented mRNA was incubated with SOLiD™ Adapter mix (LT) in STAR hybridization solution (LT), and incubated for 5 minutes at 65° C. After incubation on ice, adapter ligation was performed according to the STAR protocol (LT). The samples were run on a 10% denaturing polyacrylamide gel, and fragments from 180-300 nucleotides were excised. Reverse transcription and PCR amplification of the libraries was performed according to the STAR protocol, followed by excision of 200 to 300 nucleotide fragments from a 6% native polyacrylamide gel. Sequencing of the fragments was performed on the SOLiD™ System (LT). […]

The next data set concerns M249 melanoma cell line. Put plainly: Anti-proliferative effect of miRNA mimics, MTS assay. Type of data set: cell-based. As to conditions: 5 nM mimic, 72 hours after transfection. The protocol:
(§1) The anti-proliferative effect of miRNA's in melanoma cell lines was determined with mature miRNA mimics from Ambion. For each cell line optimal growth and transfection conditions were determined prior to the experiment. Cells were plated in a 96-well plate at 3000 cells per well (100 uL) and were grown at 37 C, 5% CO2. Transfection mix (20 uL per well) was made for each miRNA mimic concentration with 0.3 uL (M249, M249-R4) or 0.5 uL (A375Hu, A375Hu-R1, A2058, RPMI-7951) X-TremeGene (Roche) per well (according to manufacturer's instructions) in Optimem (Invitrogen). Cells were transfected 24 hours after plating in triplicate. Medium was replaced 48 hours after transfection with fresh medium.
On the technique in general: Tetrazolium dyes change colour on reduction, which living cells bring about.

Data set [4] has as its system RPMI-7951 melanoma cell line. The description is as above. The format is cell-based. Conditions: 10 nM mimic, 72 hours after transfection. The protocol: as §1
The next data set deals with A2058 melanoma cell line. The data set is described as above. Conditions: 10 nM mimic, 72 hours after transfection. Type of data set: cell-based. The protocol: as §1

Take `CCCS(=O)(=O)Nc1ccc(F)c(C(=O)c2c[nH]c3ncc(-c4ccc(Cl)cc4)cc23)c1F` [Vemurafenib, N-(3-{[5-(4-chlorophenyl)-1H-pyrrolo[2,3-b]pyridin-3-yl]carbonyl}-2,4-difluorophenyl)propane-1-sulfonamide]: the GI50 in data set [1] is greater than 10 µM.
“hsa-miR-3157-5p: mature miRNA mimic, SEQ ID NO 6 UUCAGCCAGGCUAGUGCAGUCU (listed as RNA, chemistry not given here)”: the “cell viability relative to mock transfected cells” value in data set [2] is listed as “reduced viability”. In addition, the “decrease of mRNA levels of CDK4, BCL2 and BIRC5 in the RNAseq analysis” value in data set [3] (72 hrs) is 60%. For the same compound, the “predicted targets with reduced mRNA levels” value in data set [3] (change at least 60%, p<10^-5, in silico target prediction) was 145 genes. Also, the “M249 % Viability 5 nM” value in the data set with M249 melanoma cell line is 42%. Moreover, in data set [4], the “RPMI-7951 % Viability 10 nM” value is given as 26%. Moreover, the “A2058 % Viability 10 nM” value in the data set with A2058 melanoma cell line came to 43%.
